Data reported in US7381428B2, “Stabilized lanthanum carbonate compositions” (Shire International Licensing B.V., priority 2003, dated 2008).

Legend:
Format in all cases: physicochemical
[1] = Thermal and moisture stress study of lanthanum carbonate/excipient mixtures, decarboxylation to lanthanum hydroxycarbonate (HC) monitored by XRPD
Method: Excipient compatibility studies of hydrated lanthanum carbonate having a water content approximately equivalent to 4-5 moles of water and anhydrous lanthanum carbonate were performed to determine whether different classes of saccharide excipients would retard or prevent the appearance of decarboxylation products in thermally- and moisture-stressed solid lanthanum carbonate mixtures.
Conditions which would cause the formation of decarboxylation products in substantially pure hydrated lanthanum carbonate within one week were used. Mixtures of 1:1 or 96:4 (by weight) of hydrated lanthanum carbonate and a test excipient or 1:1 (by weight) anhydrous lanthanum carbonate and a test excipient were prepared and stressed, and samples were analyzed by XRPD (X-ray powder diffraction) as a function of exposure time.
Weighed samples of hydrated lanthanum carbonate/excipient (1:1 or 96:4 by weight) or anhydrous lanthanum carbonate/excipient (1:1 by weight) were sealed into scintillation vials and placed onto a Turbula mixer. Samples were mixed for ten minutes to ensure sample homogeneity.
Saturated salt solutions of Na2SO4.10H2O (˜95% RH (relative humidity)) or NaNO3 (65% RH) were prepared and placed into sealed chambers. The chambers were placed into a 60° C. oven overnight and the presence of solids was confirmed after 24 hours. These chambers were then subsequently used for the stressing studies of the various excipient/lanthanum carbonate mixtures. The lower humidity conditions were utilized for the D-sorbitol and dextrates excipients because they deliquesce under the more extreme conditions of 60° C./95% RH.
XRPD analyses were performed using a Shimadzu XRD-6000 X-ray powder diffractometer using Cu Kα radiation. […]
At the experimental onset, the hydrated lanthanum carbonate was stressed under two conditions, 60° C./95% RH and 60° C./65% RH, in order to establish a baseline for monitoring decarboxylation. Individual samples were pulled after 1, 2, 3, 4, and 7 days and immediately analyzed by XRPD. […]

[2] = Degradation to lanthanum hydroxycarbonate at room temperature / standard ambient conditions
[3] = Decarboxylation of hydrated lanthanum carbonate at standard ICH stability conditions, lanthanum hydroxycarbonate content by XRPD; conditions: 25° C./60% RH, 30° C./60% RH and 40° C./75% RH, up to 2 years
Method: Unformulated hydrated lanthanum carbonate and formulated hydrated lanthanum carbonate tablets containing approximately 50% (by weight) dextrates were exposed to the standard ICH stability conditions of 25° C./60% RH, 30° C./60% RH and 40° C./75% RH for a period up to 2 years. Samples were removed periodically over this time and tested for their lanthanum hydroxycarbonate content using x-ray powder diffraction.

time after which decarboxylation product HC was initially seen (XRPD) ([1]; 60° C./95% RH)	time within which degradation to lanthanum hydroxycarbonate occurs [2]	time after which decarboxylation product HC was initially seen (XRPD) ([1]; 60° C./65% RH)	degradation (decarboxylation) to lanthanum hydroxycarbonate [3]	Compound
1 days	9-12 months			O=C([O-])[O-].O=C([O-])[O-].O=C([O-])[O-].[La+3].[La+3] [substantially pure lanthanum carbonate, La2(CO3)3.xH2O]
one		single	significant degradation	hydrated lanthanum carbonate
